Data from US7267990B2, “Chelation of charged and uncharged molecules with porphyrin-based compounds” (priority 2002, dated 2007).

Columns and labels:
[1] = test system: V79 hamster fibroblast cells; experiment: Clonogenic cytotoxicity assay in V79 cells; format: cell-based; conditions: concentrations up to 200 μM
Protocol: Human glioblastoma U373 MG, hamster V79 fibroblast, and mouse melanoma B16 cells were obtained from the American Type Culture Collection. Rat gliosarcoma cells were kindly provided by the University of California at San Francisco Brain Tumor Research Group. All cells were maintained in log phase monolayer cultures with RPMI 1640 supplemented with 10% fetal bovine serum and 2 mM glutamine. We have also determined the cytotoxicity of porphyrins 4, 16, 18, and 31 in V79 hamster fibroblast cells using a clonogenic assay. For each of these porphyrins, we found CS50>300 μM, and we observed no toxicity (i.e., no effect on colony survival) at concentrations up to 200 μM.

[2] = test system: healthy female Balb/c mice; conditions: mouse, in vivo
From the text: So far we have determined maximum tolerated doses for compounds 4, 6, 16, 31, and 33 using healthy female Balb/c mice.

[3] = test system: rat 9 L gliosarcoma cells; experiment: Dark cytotoxicity assay, 9L cells; format: cell-based; conditions: 24 hour exposure, concentrations up to 250 μM, read-out: IC50 (dark toxicity, inhibition of proliferation)
Protocol: (§1) Human glioblastoma U373 MG, hamster V79 fibroblast, and mouse melanoma B16 cells were obtained from the American Type Culture Collection. Rat gliosarcoma cells were kindly provided by the University of California at San Francisco Brain Tumor Research Group. All cells were maintained in log phase monolayer cultures with RPMI 1640 supplemented with 10% fetal bovine serum and 2 mM glutamine.
(§2) Cells were seeded in 96-well culture plates, and were allowed to settle and attach for 24-48 hours. Triplicate wells were then exposed to twofold serial dilutions of test compounds at concentrations up to 250 μM. Compounds 4, 6, 10, and 12 in crystalline form were carefully weighed and dissolved in 100% DMSO to prepare stock solutions. Subsequent dilutions were performed directly in the culture medium just before the medium was administered to cells. After short-term (2 hour) or long-term (24 hour) exposure, cells were washed, and the wells were refilled with fresh culture medium. For dark toxicity trials, cells were allowed to proliferate for an additional 48-72 hours. For phototoxicity trials, washed cells were irradiated for 10 minutes with broad spectrum (600-700 nm) red light, and were then returned to an incubator for 48-72 hours.

[4] = test system: human U-373MG glioblastoma cells; experiment: Dark cytotoxicity assay, U-373 MG cells; format: cell-based; conditions: 24 hour exposure, concentrations up to 250 μM, read-out: IC50 (dark toxicity, inhibition of proliferation)
Protocol: as §1, §2

Row | Substance | toxicity (effect on colony survival) [1] | maximum tolerated dose [2] | IC50 [3] [µM] | IC50 [4] [µM]
1 | Zn(II)-meso-tetra[4-(nido-carboranyl)phenyl]porphyrin tetrapotassium salt [Compound 18] | no toxicity |  |  | 
2 | 5,15-bis[bis-3,5-(1-methyl-o-carboranyl)methylphenyl]porphyrin [Compound 33] |  | exceeded 300 mg per kg of body weight |  | 
3 | meso-tetra[4-(1-methyl-nido-carboranyl)methylphenyl]porphyrin tetrapotassium salt [Compound 4] | no toxicity | exceeded 300 mg per kg of body weight | ~150 | ~150
4 | meso-tetra[3-(1-methyl-nido-carboranyl)methylphenyl]porphyrin tetrapotassium salt [Compound 10] |  |  | ~150 | ~150
5 | Zn(II)-meso-tetra[4-(1-methyl-nido-carboranyl)methylphenyl]porphyrin tetrapotassium salt [Compound 6] |  | exceeded 300 mg per kg of body weight |  | 
6 | meso-tetra[4-(nido-carboranyl)phenyl]porphyrin tetrapotassium salt [Compound 16] | no toxicity | exceeded 300 mg per kg of body weight |  | 
